Usually Ki stands for the dissociation constant of the complex between target and ligand, obtained from inhibition or displacement. A higher Ki goes with lower affinity. As a reminder, the IC50 is the concentration needed to halve the response being measured. A lower IC50 goes with greater potency.

Changes are numbered by the printed parent chain. Where only a bound is given, the exact number is not on record here.

Here are results for four molecules from patent US12275687B2 (priority 2017, dated 2025).

The target in one assay is BLT1-T4L. Kind of assay: Competition assay of ligands against ^3H-LTB4, BLT1-T4L expressed in P. pastoris. It counts as binding, guinea pig. As to conditions: for logIC50: log value (negative). The text has this: For the ligand binding assay of BLT1-T4Ls, the T4L cDNA was integrated into the cDNA, encoding the newly generated thermostable BLT1 mutant with the additional mutation V212A, by the consensus method (residues 1-14 deleted and H83G/K88G/V212A/S309A mutations), with the α-factor PrePro signal sequence and the FLAG tag at the N-terminal, and the PreScission site and the His6 tag at the C-terminal of BLT1 (Hori T. et al., 2010, supra) in the pPIC3.5K vector, using the In-Fusion enzyme (FIG. 7A). The expression vectors were introduced into the yeast Pichia pastoris using an EasyComp kit (Thermo Fisher Scientific). BLT1-T4Ls were expressed in 10 ml cultures, and the membrane fraction was prepared as described previously (Hori T. et al., 2010, supra; Hon T. et al., 2015, supra).
(§1) For the evaluation of the ligand-binding activity of the BLT1 mutants and BLT1-T4Ls, a ^3H-LTB4 binding assay was performed using the BLT1-expressing membrane fractions of COS-7, HEK293, or P. pastoris cells, as described previously (Hori T. et al., 2010, supra; Hori T. et al., 2015, supra). For the evaluation of the thermostability, the membrane fraction was heat-treated before the ^3H-LTB4 binding assay.

A further assay has as its target T1, BLT1 W236^6.48A mutant (Cavia porcellus, UniProt H0VYV8, W236A).
T1 construct: expressed in transfected cells; host or cells: HEK293 (membrane fraction)
The assay can be described thus: Competition binding of BIIL260 to 0.5 nM ^3H-LTB4, BLT1 mutant in HEK293 membrane fraction. Also noted: species or system guinea pig.
Text: (§2) (A) Structure of the BIIL260-binding site. BIIL260 and the BLT1 side chains within 4 Å from BIIL260 are represented by stick models, and transmembrane helices are depicted by thin ribbons. Sulfur atoms are colored gold. (B) Schematic representation of the BLT1-BIIL260 interaction. Intermolecular forces such as the salt bridge, hydrogen bonding, π-to-edge, CH-to-π, and hydrophobic interactions are indicated in red, blue, orange, violet, and green, respectively. The three non-identical residues in human BLT1 and BLT2, a cognate receptor of BLT1, are highlighted in green shaded boxes, and the corresponding residues of human BLT1 and BLT2 (hBLT1 and hBLT2, respectively) are also presented. (C) Competition binding assays of BIIL260 to 0.5 nM ^3H-LTB4, using the membrane fractions of HEK293 cells expressing the mutant and wild-type BLT1s. The mutations were introduced at the residues involved in the specific BIIL260 binding. Each point (±s.e.m.) indicates the mean value of two independent experiments, each with triplicate reactions. NS is non-specific binding measured with 0.5 μM LTB4.
(§3) For the evaluation of the thermostabilities of guinea pig BLT1 mutants designed by the consensus method (FIG. 8A), point mutations were introduced using a QuikChange kit (Agilent) to the previously constructed thermostabilized BLT1 mutant cDNA (residues 1-14 deleted, H83G/K88G/S309A mutations, and an N-terminal FLAG-tag) in the pcDNA3 vector (Hori, T. et al., Protein Expr. Purif. 72 (2010) 66-74; Hori, T. et al., Biochem. Biophys. Rep. 4 (2015) 243-249). The expression vectors encoding the BLT1 mutants were transfected into COS-7 cells with Lipofectamine 2000. For the analysis of the BIIL260 binding residues of BLT1, point mutations were introduced, using the In-Fusion enzyme (Clontech), into the wild-type BLT1 cDNA with the N-terminal FLAG-tag in the pcDNA3 vector. The expression vectors were transfected into HEK293 cells, using polyethyleneimine. […] The BLT1 mutants were transiently expressed for three days at 37° C. The cells were washed with PBS, harvested with PBS-EDTA, disrupted with a sonicator, and centrifuged at 800×g for 5 min. The supernatant was further ultra-centrifuged at 100,000×g for 60 min, and the precipitate was collected.
as §1

Another assay has as its target T2, BLT1 S106^3.39A mutant (Cavia porcellus, UniProt H0VYV8, S106A).
T2 construct: expressed in transfected cells; host or cells: HEK293 (membrane fraction)
The description is as above. Set-up: species or system guinea pig.
Text: as §2, §3, §1

In the next assay the target is T3, BLT1 S276^7.45A mutant (Cavia porcellus, UniProt H0VYV8, S276A).
T3 construct: expressed in transfected cells; host or cells: HEK293 (membrane fraction)
The assay is described as above. Set-up: species or system guinea pig.
Text: as §2, §3, §1

For a further assay, the target named is T4, BLT1 L80^2.64A mutant (Cavia porcellus, UniProt H0VYV8, L80A).
T4 construct: expressed in transfected cells; host or cells: HEK293 (membrane fraction)
The assay is described as above. Also noted: species or system guinea pig.
Text: as §2, §3, §1

For another assay, the target named is T5, BLT1 D66^2.50A mutant (Cavia porcellus, UniProt H0VYV8, D66A).
T5 construct: expressed in transfected cells; host or cells: HEK293 (membrane fraction)
T5 sequence (H0VYV8 1-348 D66A): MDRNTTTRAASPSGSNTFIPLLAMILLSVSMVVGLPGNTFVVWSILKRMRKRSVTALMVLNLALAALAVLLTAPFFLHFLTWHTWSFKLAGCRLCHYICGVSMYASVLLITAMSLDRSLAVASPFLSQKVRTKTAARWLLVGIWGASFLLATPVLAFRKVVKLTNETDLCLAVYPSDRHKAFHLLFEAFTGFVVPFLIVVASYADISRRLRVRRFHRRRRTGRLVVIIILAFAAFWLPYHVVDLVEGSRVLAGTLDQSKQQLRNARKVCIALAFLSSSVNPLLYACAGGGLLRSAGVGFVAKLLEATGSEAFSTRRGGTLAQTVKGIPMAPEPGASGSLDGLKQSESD
The assay is described as above. Also noted: species or system guinea pig.
Text: as §2, §3, §1

For the next assay, the target named is T6, BLT1 V69^2.53A mutant (Cavia porcellus, UniProt H0VYV8, V69A).
T6 construct: expressed in transfected cells; host or cells: HEK293 (membrane fraction)
T6 sequence (H0VYV8 1-348 V69A): T5 sequence (H0VYV8 1-348 D66A) with A66D, V69A
The assay is described as above. Also noted: species or system guinea pig.
Text: as §2, §3, §1

Assay [1] deals with T7, wild-type BLT1 (Cavia porcellus, UniProt H0VYV8).
T7 construct: expressed in transfected cells; host or cells: HEK293 (membrane fraction)
Kind of assay: Competition binding of BIIL260 to 0.5 nM ^3H-LTB4, wild-type BLT1 in HEK293 membrane fraction. The settings on record: WT. Also noted: species or system guinea pig.
Text: as §2, with “LTB4. […]” for “LTB4.”

The target of assay [2] is T7, wild-type BLT1. Kind of assay: Competition binding assay of benzamidine and NaCl to 0.5 nM ^3H-LTB4 (allosteric modulation titration analysis). Also noted: species or system guinea pig. The settings on record: for logα / α: cooperative factor between ^3H-LTB4 and the modulator. The text has this: Each point (±s.e.m.) indicates the mean value of three independent experiments, each with triplicate reactions. […] Each point (±s.e.m.) indicates the mean value of three independent experiments, each with triplicate reactions. […] Each point (±s.e.m.) indicates the mean value of triplicate reactions. For the evaluation of the thermostabilities of guinea pig BLT1 mutants designed by the consensus method (FIG. 8A), point mutations were introduced using a QuikChange kit (Agilent) to the previously constructed thermostabilized BLT1 […] deleted, […] mutations, and an N-terminal FLAG-tag) in the pcDNA3 vector (Hori, T. et al., Protein Expr. Purif. 72 (2010) 66-74; Hori, T. et al., Biochem. Biophys. Rep. 4 (2015) 243-249). The expression vectors encoding the BLT1 mutants were transfected into COS-7 cells with Lipofectamine 2000. For the analysis of the BIIL260 binding residues of BLT1, point mutations were introduced, using the In-Fusion enzyme (Clontech), into the wild-type BLT1 cDNA with the N-terminal FLAG-tag in the pcDNA3 vector. The expression vectors were transfected into HEK293 cells, using polyethyleneimine. […] The BLT1 mutants were transiently expressed for three days at 37° C. The cells were washed with PBS, harvested with PBS-EDTA, disrupted with a sonicator, and centrifuged at 800×g for 5 min. The supernatant was further ultra-centrifuged at 100,000×g for 60 min, and the precipitate was collected. For the evaluation of the ligand-binding activity of the BLT1 mutants and BLT1-[…], a ^3H-LTB4 binding assay was performed using the BLT1-expressing membrane fractions of COS-7, HEK293, or P. pastoris cells, as described previously (Hori T. et al., 2010, supra; Hori T. et al., 2015, supra). For the evaluation of the thermostability, the membrane fraction was heat-treated before the ^3H-LTB4 binding assay. […] For all of the pharmacological analyses, nonlinear regression curve fitting was performed using Prism 5 (Graph Pad Software).

Assay [3] addresses T8, BLT1 (Cavia porcellus, UniProt H0VYV8). The assay can be described thus: Saturation binding assay of ^3H-LTB4 and BLT1 with various concentrations of benzamidine. Also noted: expressed in transfected cells; host or cells: HEK293 (membrane fraction); species or system guinea pig. How it is done: Each point (±s.e.m.) indicates the mean value of three independent experiments, each with triplicate reactions. […] Each point (±s.e.m.) indicates the mean value of three independent experiments, each with triplicate reactions. […] Each point (±s.e.m.) indicates the mean value of triplicate reactions. For the evaluation of the ligand-binding activity of the BLT1 mutants and BLT1-[…], a ^3H-LTB4 binding assay was performed using the BLT1-expressing membrane fractions of COS-7, HEK293, or P. pastoris cells, as described previously (Hori T. et al., 2010, supra; Hori T. et al., 2015, supra). For the evaluation of the thermostability, the membrane fraction was heat-treated before the ^3H-LTB4 binding assay.

Assay [4] deals with T8, BLT1. The assay can be described thus: TGFα shedding assay with benzamidine (G-protein activation by LTB4). It is filed as cell-based. Also noted: expressed in transfected cells. The settings on record: for logβ / β: LTB4-induced efficacy modulation by benzamidine. How it is done: Each point (±s.e.m.) indicates the mean value of three independent experiments, each with triplicate reactions. […] Each point (±s.e.m.) indicates the mean value of three independent experiments, each with triplicate reactions. […] Each point (±s.e.m.) indicates the mean value of triplicate reactions. […] To determine the parameters, three steps of fitting procedures were performed.

Setting [5] is: saturation binding, global fitting.

T8 sequence (H0VYV8 1-348): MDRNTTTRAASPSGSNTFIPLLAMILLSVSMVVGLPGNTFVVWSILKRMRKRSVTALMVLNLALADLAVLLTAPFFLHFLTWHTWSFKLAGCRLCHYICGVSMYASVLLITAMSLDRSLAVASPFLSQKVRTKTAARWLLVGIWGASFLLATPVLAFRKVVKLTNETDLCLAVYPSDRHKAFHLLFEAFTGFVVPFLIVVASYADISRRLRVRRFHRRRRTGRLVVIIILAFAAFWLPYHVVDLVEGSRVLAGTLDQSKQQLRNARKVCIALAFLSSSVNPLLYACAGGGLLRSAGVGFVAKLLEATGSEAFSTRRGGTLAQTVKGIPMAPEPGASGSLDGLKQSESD
T7 sequence (H0VYV8 1-348): as above
T3 sequence (H0VYV8 1-348 S276A): as the sequence (H0VYV8 1-348) above, with S276A counted along it
T1 sequence (H0VYV8 1-348 W236A): as the sequence (H0VYV8 1-348) above, with W236A counted along it
T4 sequence (H0VYV8 1-348 L80A): as the sequence (H0VYV8 1-348) above, with L80A counted along it
T2 sequence (H0VYV8 1-348 S106A): as the sequence (H0VYV8 1-348) above, with S106A counted along it

On BLT1-T4L, `CCOC(=O)NC(=N)c1ccc(OCc2cccc(COc3ccc(C(C)(C)c4ccc(O)cc4)cc3)c2)cc1` yielded a Ki of 0.148 µM and a logIC50 of −6.7.

In the case of `CC(C)(c1ccc(O)cc1)c1ccc(OCc2cccc(COc3ccc(C(=N)N)cc3)c2)cc1` [BIIL260], affinity on BLT1-T4L was put at a Ki of 0.0023 µM. Besides, the logIC50 in the assay with BLT1-T4L is −8.5; at BLT1 W236^6.48A mutant (log value (negative)) it was −7.2; at BLT1 S106^3.39A mutant (log value (negative)) it was −7.9; at BLT1 S276^7.45A mutant (S276^7.45A, log value (negative)) it was −6.9; at BLT1 L80^2.64A mutant (log value (negative)), −7.9; at BLT1 V69^2.53A mutant (log value (negative)), −7.5. Further, the logIC50 at wild-type BLT1 [1] (log value (negative)) is −7.5. Besides, the IC50 on BLT1 W236^6.48A mutant turned out to be 0.062 µM; on BLT1 S106^3.39A mutant, 0.012 µM; on BLT1 S276^7.45A mutant (S276^7.45A), 0.124 µM; at BLT1 L80^2.64A mutant, 0.012 µM; on BLT1 V69^2.53A mutant, 0.033 µM; at wild-type BLT1 [1] it was 0.03 µM. In addition, the BIIL260-binding ability result on BLT1 S276^7.45A mutant (S276^7.45A mutation) is “decreased”; at BLT1 D66^2.50A mutant (D66^2.50A mutation) it was “abrogated”. On BLT1 D66^2.50A mutant (D66^2.50A), the “logIC50 (IC50)” value is given as “No binding”.

Take `N=C(N)c1ccccc1` [Benzamidine, benzamidine]: on wild-type BLT1 [2] (FIG. 3A), the “level of the LTB4-BLT1 binding” value is reported as “decreased the level of the LTB4-BLT1 binding in a benzamidine concentration-dependent manner” and the “suppression of the BLT1-LTB4 binding compared with the sodium ion” value is “more potently than the sodium ion, by one order of magnitude”. At wild-type BLT1 [2], the logα was −0.82 and the α entry is reported as “(α = 0.15)”. For the same molecule, the “binding affinity of LTB4 toward BLT1” value on BLT1 [3] (FIG. 3B) is “lowered”. Moreover, at BLT1 [3] (setting [5]), the logα is listed as −0.93 and the α entry is recorded as “(α = 0.12)”. For the same molecule, the “BLT1-LTB4-mediated Gq/il and G16 activation” value at BLT1 [4] (FIGS. 3C and 3D) was “decreased”. Also, at BLT1 [4] (G16), the logα was −0.45, the α result is “(α = 0.36)”, the logβ is −1.6 and the β result is “(β = 0.03)”. For the same molecule, on BLT1 [4] (Gq/i1), the logα was found to be 0.00, the α entry is on record as “(α = 1.00)”, the logβ is −1.9 and the β result is given as “(β = 0.01)”. Besides, at BLT1 [4] (as a whole), the “cooperative factor of the LTB4-induced efficacy modulation (β)” value was under 1. Further, the “cooperative factor of the binding of LTB4 to BLT1 (α)” value on BLT1 [4] (as a whole (binding and shedding assays)) was at most 1.

In the case of `[Cl-].[Na+]` [NaCl], at wild-type BLT1 [2] (FIG. 3A), the “level of the LTB4-BLT1 binding” value is recorded as “decreased in a sodium ion concentration-dependent manner”. Also, on wild-type BLT1 [2], the logα was −1.5 and the α entry is reported as “(α = 0.035)”.
